For series [1], the target named is Delta-type opioid receptor (Homo sapiens, UniProt P41143). The experiment in a line: Displacement of [3H]diprenorphine from human delta opioid receptor expressed in cells after 1 hr by liquid scintillation counting analysis. It counts as cell-based. A general note: Displacement assays read how much labelled ligand stays bound in the presence of the test substance.

Series [2] has as its target T1, Mu-type opioid receptor (Homo sapiens, UniProt P35372). The experiment in a line: Displacement of [3H]diprenorphine from human mu opioid receptor expressed in cells after 1 hr by liquid scintillation counting analysis. The format is cell-based.
The target in series [3] is Voltage-gated inwardly rectifying potassium channel KCNH2 (Homo sapiens, UniProt Q12809). The experiment in a line: Inhibition of human ERG by [3H]dofetilide binding assay.
Series [4] addresses T1, Mu-type opioid receptor. The experiment in a line: Antagonist activity at human mu opioid receptor expressed in CHO cells assessed as [35S]-GTPgammaS binding after 1 hr by liquid scintillation counting analysis. It counts as functional, cell-based.
Another series concerns the target CYP2D6 (Homo sapiens, UniProt P10635). The experiment in a line: Inhibition of CYP2D6 (unknown origin) at 3 uM after 8 mins. It counts as ADME.
In series [5] the test system is Rattus norvegicus. Put plainly: Antagonist activity against morphine-induced antinociception in sc dosed rat assessed as reversal of latency increase. The format is functional.
For series [6], the target named is Kappa-type opioid receptor (Homo sapiens, UniProt P41145). The experiment in a line: Displacement of [3H]diprenorphine from human kappa opioid receptor expressed in cells after 1 hr by liquid scintillation counting analysis. It counts as cell-based.
Series [7] is described as follows: Intrinsic clearance in human liver microsomes. The format is ADME. The conditions noted are these: read-out: CLH. (Microsomes from liver hold many membrane-bound enzymes, among them those of drug oxidation.)
A further series addresses hERG (KCNH2) (Homo sapiens, UniProt Q12809). The experiment in a line: Inhibition of human ERG.
Series [8] is described as follows: Inhibition of IC20 for human ERG over plasma efficacious concentration. It counts as functional.
Another series deals with human MDR1 (P-gp). Put plainly: Efflux ratio of apparent permeability from basolateral to apical side over apical to basolateral side in MDCK cells transfected with human MDR1. It counts as ADME, cell-based, Canis lupus familiaris. The conditions noted are these: dog.
For series [9], the species on record is Homo sapiens. Put plainly: Ratio of Ki for human mu opioid receptor to Ki for human delta opioid receptor.
The species named for series [10] is Homo sapiens. The experiment in a line: Ratio of ki for human mu opioid receptor to human kappa opioid receptor.
The subject of series [11] is Rattus norvegicus. Put plainly: Reduction in alcohol intake in alcohol-preferring rat at 1 mg/kg, sc after 30 mins. It counts as functional. The note with it: 0.5 h, route subcutaneous.
Series [12] can be described thus: Clearance in rat. It counts as ADME, organism-based. The note with it: in vivo.
The subject of series [13] is Rattus norvegicus. Put plainly: Reduction in alcohol intake in alcohol-preferring rat at 5.6 mg/kg, sc after 30 mins. The note with it: 0.5 h, route subcutaneous. The format is functional.
Series [14] has as its system Rattus norvegicus. Put plainly: Reduction in alcohol intake in sc dosed alcohol-preferring rat after 30 mins. The format is functional, organism-based.
The nature of series [15]: Half life in rat. The format is ADME, organism-based. The note with it: in vivo.
Series [16] in a line: Fraction unbound in rat at 1 mg/kg, sc at 0.75 hrs time-point. The arrangement: dose 1 mg/kg, route subcutaneous. The note with it: plasma. The format is ADME, organism-based.
The nature of series [17]: Ratio of drug level in rat brain to plasma at 1 mg/kg, sc at 0.75 hrs time-point. It counts as ADME, organism-based. The arrangement: dose 1 mg/kg, route subcutaneous. The conditions noted are these: read-out: BPR.
Series [18] in a line: Volume of distribution in rat. It counts as ADME, organism-based. The note with it: in vivo.
The nature of series [19]: Drug level in rat cerebrospinal fluid at 1 mg/kg, sc at 0.75 hrs time-point. The format is ADME, organism-based. Also on record: dose 1 mg/kg, route subcutaneous. The conditions noted are these: read-out: Drug uptake.
Series [20] can be described thus: Total plasma concentration in rat at 1 mg/kg, sc at 0.75 hrs time-point. The format is ADME, organism-based. Also on record: dose 1 mg/kg, route subcutaneous.
Series [21] has as its system Rattus norvegicus. Put plainly: Reduction in alcohol intake in alcohol-preferring rat at 3 mg/kg, sc after 30 mins. The format is functional. The conditions noted are these: 0.5 h, route subcutaneous.

Sequence of CYP2D6 (P10635 whole entry): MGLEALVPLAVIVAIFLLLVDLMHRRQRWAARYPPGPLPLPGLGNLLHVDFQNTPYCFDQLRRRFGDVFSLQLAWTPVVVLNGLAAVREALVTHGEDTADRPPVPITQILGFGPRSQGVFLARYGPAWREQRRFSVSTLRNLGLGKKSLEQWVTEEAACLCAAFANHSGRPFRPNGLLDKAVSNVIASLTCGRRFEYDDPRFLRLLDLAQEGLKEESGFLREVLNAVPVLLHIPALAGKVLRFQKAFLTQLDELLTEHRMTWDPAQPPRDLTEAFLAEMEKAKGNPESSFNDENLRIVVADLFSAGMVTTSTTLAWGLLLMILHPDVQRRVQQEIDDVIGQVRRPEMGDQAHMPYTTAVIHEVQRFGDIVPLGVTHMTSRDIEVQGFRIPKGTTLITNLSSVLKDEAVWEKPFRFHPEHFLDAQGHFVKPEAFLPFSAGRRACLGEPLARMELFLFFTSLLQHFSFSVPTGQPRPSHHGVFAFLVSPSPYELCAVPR
T1 sequence (P35372 whole entry): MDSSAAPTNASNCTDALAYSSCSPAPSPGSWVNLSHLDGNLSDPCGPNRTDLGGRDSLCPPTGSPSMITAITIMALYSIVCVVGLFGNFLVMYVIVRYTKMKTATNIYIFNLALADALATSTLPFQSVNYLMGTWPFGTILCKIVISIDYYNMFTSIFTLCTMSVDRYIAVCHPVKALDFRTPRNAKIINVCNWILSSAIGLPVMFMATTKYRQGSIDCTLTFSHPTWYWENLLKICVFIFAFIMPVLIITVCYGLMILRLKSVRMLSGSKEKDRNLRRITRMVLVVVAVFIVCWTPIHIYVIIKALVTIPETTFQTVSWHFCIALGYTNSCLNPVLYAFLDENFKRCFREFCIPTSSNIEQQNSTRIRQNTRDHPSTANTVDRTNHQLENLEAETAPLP
Sequence of Kappa-type opioid receptor (P41145 whole entry): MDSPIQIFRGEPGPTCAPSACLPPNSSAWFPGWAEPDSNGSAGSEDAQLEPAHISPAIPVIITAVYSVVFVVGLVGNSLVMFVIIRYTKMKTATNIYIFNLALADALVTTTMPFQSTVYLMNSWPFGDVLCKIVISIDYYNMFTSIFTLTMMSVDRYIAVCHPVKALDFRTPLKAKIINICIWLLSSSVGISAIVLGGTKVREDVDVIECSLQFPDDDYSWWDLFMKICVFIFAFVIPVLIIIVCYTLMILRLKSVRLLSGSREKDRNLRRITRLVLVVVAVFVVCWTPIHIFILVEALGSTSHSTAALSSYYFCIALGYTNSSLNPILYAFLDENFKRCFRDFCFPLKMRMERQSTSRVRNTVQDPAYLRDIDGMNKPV
Sequence of Voltage-gated inwardly rectifying potassium channel KCNH2 (Q12809 whole entry): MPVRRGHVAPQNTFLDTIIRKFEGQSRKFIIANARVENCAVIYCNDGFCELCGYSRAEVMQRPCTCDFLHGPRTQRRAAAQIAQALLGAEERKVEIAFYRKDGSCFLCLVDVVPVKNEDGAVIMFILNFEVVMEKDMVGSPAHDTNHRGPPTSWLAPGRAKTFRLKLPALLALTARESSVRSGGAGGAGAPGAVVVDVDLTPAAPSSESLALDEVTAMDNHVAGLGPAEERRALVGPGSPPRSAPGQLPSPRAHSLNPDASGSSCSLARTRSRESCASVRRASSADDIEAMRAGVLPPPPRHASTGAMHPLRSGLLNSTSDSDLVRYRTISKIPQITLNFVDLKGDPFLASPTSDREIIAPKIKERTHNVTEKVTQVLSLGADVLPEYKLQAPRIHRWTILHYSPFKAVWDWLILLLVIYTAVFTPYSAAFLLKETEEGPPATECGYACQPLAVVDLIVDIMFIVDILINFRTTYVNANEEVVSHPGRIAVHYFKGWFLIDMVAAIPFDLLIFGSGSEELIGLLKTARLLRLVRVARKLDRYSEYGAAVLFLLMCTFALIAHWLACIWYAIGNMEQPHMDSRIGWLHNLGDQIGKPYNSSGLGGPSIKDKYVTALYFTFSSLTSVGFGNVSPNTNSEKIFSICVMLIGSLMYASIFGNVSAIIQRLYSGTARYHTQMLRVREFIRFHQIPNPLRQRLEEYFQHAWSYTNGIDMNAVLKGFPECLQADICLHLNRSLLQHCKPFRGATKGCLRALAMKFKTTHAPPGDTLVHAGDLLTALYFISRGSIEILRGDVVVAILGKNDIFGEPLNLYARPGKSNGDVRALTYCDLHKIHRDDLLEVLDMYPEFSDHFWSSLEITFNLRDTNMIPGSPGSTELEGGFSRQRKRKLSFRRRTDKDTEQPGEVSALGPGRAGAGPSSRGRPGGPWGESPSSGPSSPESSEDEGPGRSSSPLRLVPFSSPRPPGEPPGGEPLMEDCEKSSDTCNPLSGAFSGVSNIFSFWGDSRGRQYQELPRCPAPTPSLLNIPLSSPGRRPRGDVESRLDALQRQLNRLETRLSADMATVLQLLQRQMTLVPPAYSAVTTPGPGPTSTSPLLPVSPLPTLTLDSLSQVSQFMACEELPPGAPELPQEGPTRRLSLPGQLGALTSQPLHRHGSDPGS
Sequence of Delta-type opioid receptor (P41143 whole entry): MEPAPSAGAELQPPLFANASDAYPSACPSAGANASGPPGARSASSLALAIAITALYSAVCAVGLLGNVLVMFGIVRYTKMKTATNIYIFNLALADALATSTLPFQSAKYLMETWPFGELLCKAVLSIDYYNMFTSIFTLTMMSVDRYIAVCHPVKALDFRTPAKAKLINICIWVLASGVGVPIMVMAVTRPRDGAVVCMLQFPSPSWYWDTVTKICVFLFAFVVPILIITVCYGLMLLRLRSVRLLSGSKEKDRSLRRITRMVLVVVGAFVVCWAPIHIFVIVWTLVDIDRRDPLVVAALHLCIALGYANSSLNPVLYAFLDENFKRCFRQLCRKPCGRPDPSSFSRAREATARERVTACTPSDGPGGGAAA
Sequence of hERG (KCNH2) (Q12809 whole entry): as the sequence (Q12809 whole entry) above

For orientation: Ki means the dissociation constant of the complex between target and ligand, obtained from inhibition or displacement. What is called IC50 is the midpoint of a concentration-inhibition curve. Read a low IC50 as inhibition by little substance. A word on the inhibition: it is the percentage by which the read-out fell short of the control. One may read the ED50 as the dose that gives a 50% effect, or the effect in half of the subjects. Broadly, the IC20 is the concentration at which the effect reaches the 20% level. For orientation: efflux ratio means a quotient of directional permeabilities that is used to spot active efflux. In the case of `CC[C@]1(c2cccc(NS(C)(=O)=O)c2)[C@@H]2CN(CCCC3(O)CCCCC3)C[C@@H]21`, the Ki in series [1] is 166 nM; at Mu-type opioid receptor [2] it was 2 nM; at Mu-type opioid receptor [4], 0.18 nM; in [6], 16 nM. This compound also yielded a half-maximal inhibitory concentration (IC50) in series [3] of 710 nM. On CYP2D6, this compound had an inhibition at 8 min, 3 µM of 14%. In addition, the ED50 in the series on Rattus norvegicus [5] stood at 0.63 mg/kg. For the same compound, the CLint scaled in [7] stood at 9 mL/min/kg. This compound also showed a 20% effect concentration (IC20) against hERG (KCNH2) of 320 nM. Further, the Ratio in series [8] is reported as 15. Besides, in the series with human MDR1 (P-gp), the efflux ratio worked out at 6.5. For the same compound, the Ratio Ki in the series filed under Homo sapiens [9] is 83; in the series filed under Homo sapiens [10] it was 8.
One may read the inhibition in vivo as the relative decrease from the control value, in per cent. A low value points to little suppression. As usually defined, the clearance is the rate of elimination divided by the concentration. A high value points to efficient removal. For orientation: half-life means how long it takes for the measured level to halve. Usually fraction unbound stands for free concentration divided by total concentration. A word on the Vd: it is a proportionality between amount in the body and measured concentration, not a real space. A high value points to extensive tissue distribution. Turning to `CC[C@]1(c2cccc(NS(C)(=O)=O)c2)[C@@H]2CN(CC3(O)Cc4ccccc4C3)C[C@@H]21` [CP-866087], the Ki in series [1] amounted to 170 nM; on Mu-type opioid receptor [2], 1 nM; on Mu-type opioid receptor [4], 0.28 nM; in [6], 42 nM. This compound also showed an inhibition in vivo at 1 mg/kg in the series with Rattus norvegicus [11] of 23%. The compound further showed a clearance in series [12] of 120 mL/min/kg. In the series on Rattus norvegicus [13], this compound returned an inhibition in vivo at 5.6 mg/kg of 42%. Besides, the inhibition at 8 min, 3 µM on CYP2D6 came out at 6%. Also, in the series on Rattus norvegicus [5], the ED50 is 0.1 mg/kg. Besides, in the series with Rattus norvegicus [14], the inhibition result was “Dose-dependent effect”. In series [15], this compound gave a half-life of 11 h. In addition, in series [7], the CLint scaled was 12 mL/min/kg. Further, in [16], the free fraction (fraction unbound) at 0.75 h worked out at 0.034. Further, the Kp at 0.75 h in [17] turned out to be 2. The same compound gave a distribution volume (Vd) in [18] of 21.7 L/kg. Also, the results for the concentration at 0.75 h in [19] and in series [20] were 11.9 nM and 338 nM, respectively.
`O=C1CC[C@@]2(O)[C@H]3Cc4ccc(O)c5c4[C@@]2(CCN3CC2CC2)[C@H]1O5` [NALTREXONE]: the inhibition in vivo at 3 mg/kg in the series with Rattus norvegicus [21] was 21%.
With `CC[C@]1(c2cccc(C(N)=O)c2)[C@@H]2CN(CC3(O)Cc4ccccc4C3)C[C@@H]21`, the Ki worked out at 108 nM in series [1], 3.5 nM on Mu-type opioid receptor [2], 0.16 nM on Mu-type opioid receptor [4] and 60 nM in [6]. The compound also showed an IC50 in series [3] of 2200 nM. On CYP2D6, this compound gave an inhibition at 8 min, 3 µM of 17%. Further, the CLint scaled in series [7] is 11 mL/min/kg. Besides, the efflux ratio with human MDR1 (P-gp) was 2.9. The results for the Ratio Ki in the series listed under Homo sapiens [9] and in the series listed under Homo sapiens [10] were 31 and 17, respectively.
`CC[C@]1(c2cccc(NS(C)(=O)=O)c2)[C@@H]2CN(CC3Cc4ccccc4C3)C[C@@H]21` registered an IC50 in series [3] of 326 nM. On CYP2D6, this compound came in with an inhibition at 8 min, 3 µM of 35%. For the same compound, the CLint scaled in series [7] was 19 mL/min/kg. For the same compound, the efflux ratio in the series with human MDR1 (P-gp) turned out to be 3.5.

The values above are taken from ChEMBL document CHEMBL3217574, “Discovery of CP-866,087, a mu opioid receptor antagonist for the treatment of alcohol abuse and dependence” (Medchemcomm, 2011).
